Where a name gives a salt, the structure may show the parent alone.
Key:
ErbB2 V777L = ErbB2 V777L (Homo sapiens (Human), UniProt P04626, V777L); test: ErbB enzyme assay (CisBio HTRF-KinEASE-TK), ErbB2 V777L; format: biochemical
Outline: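 HTRF KinEASE-TK tyrosine-kinase read-out of substrate phosphorylation after a final 1 h at ambient temperature, from the 655/620 nm emission ratio.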

EGFR WT = EGFR WT (Homo sapiens (Human), UniProt P00533); test: ErbB enzyme assay (CisBio HTRF-KinEASE-TK), EGFR WT; format: biochemical; settings: ATP at Km (25 μM), 1 h incubation
Outline: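 IC50 comes from a 4-parameter fit where the curve crosses 50 percent of control, using the 655/620 nm time-resolved fluorescence ratio with DMSO-only and pre-quenched references. Kinase reactions ran 1 h at ambient temperature before Sa-XL665/cryptate-antibody detection (1 h).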

Sequence of EGFR WT (P00533 25-1210): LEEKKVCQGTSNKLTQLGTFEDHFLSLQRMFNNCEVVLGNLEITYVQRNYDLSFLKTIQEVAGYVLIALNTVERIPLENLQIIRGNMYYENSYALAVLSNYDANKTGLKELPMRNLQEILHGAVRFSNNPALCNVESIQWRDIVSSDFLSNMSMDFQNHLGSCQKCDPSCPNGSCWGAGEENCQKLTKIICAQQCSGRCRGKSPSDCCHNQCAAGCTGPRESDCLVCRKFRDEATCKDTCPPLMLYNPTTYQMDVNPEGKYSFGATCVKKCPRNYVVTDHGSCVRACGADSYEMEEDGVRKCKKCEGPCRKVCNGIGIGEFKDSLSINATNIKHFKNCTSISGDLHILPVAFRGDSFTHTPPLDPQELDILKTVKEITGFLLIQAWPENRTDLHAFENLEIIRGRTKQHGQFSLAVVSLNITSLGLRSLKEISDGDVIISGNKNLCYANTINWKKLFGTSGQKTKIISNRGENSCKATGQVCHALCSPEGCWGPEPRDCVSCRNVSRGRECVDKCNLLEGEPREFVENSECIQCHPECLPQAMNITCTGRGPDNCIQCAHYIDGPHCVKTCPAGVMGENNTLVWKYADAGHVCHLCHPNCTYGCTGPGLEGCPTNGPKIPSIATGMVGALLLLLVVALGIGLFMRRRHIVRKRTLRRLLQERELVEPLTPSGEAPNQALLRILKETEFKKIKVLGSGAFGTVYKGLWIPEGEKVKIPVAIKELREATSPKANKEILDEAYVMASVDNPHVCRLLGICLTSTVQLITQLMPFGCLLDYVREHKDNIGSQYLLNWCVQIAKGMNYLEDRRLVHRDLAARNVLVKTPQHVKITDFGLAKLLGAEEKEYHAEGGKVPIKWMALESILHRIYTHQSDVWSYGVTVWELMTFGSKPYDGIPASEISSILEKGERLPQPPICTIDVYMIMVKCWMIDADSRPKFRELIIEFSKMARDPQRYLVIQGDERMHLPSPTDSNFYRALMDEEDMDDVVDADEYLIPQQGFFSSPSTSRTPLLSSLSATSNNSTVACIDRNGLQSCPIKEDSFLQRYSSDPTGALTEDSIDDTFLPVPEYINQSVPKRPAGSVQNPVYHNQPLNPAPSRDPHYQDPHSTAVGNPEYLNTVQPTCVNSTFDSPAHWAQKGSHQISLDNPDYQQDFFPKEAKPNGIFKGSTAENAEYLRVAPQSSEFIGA
Sequence of ErbB2 V777L (P04626 23-1255 V777L): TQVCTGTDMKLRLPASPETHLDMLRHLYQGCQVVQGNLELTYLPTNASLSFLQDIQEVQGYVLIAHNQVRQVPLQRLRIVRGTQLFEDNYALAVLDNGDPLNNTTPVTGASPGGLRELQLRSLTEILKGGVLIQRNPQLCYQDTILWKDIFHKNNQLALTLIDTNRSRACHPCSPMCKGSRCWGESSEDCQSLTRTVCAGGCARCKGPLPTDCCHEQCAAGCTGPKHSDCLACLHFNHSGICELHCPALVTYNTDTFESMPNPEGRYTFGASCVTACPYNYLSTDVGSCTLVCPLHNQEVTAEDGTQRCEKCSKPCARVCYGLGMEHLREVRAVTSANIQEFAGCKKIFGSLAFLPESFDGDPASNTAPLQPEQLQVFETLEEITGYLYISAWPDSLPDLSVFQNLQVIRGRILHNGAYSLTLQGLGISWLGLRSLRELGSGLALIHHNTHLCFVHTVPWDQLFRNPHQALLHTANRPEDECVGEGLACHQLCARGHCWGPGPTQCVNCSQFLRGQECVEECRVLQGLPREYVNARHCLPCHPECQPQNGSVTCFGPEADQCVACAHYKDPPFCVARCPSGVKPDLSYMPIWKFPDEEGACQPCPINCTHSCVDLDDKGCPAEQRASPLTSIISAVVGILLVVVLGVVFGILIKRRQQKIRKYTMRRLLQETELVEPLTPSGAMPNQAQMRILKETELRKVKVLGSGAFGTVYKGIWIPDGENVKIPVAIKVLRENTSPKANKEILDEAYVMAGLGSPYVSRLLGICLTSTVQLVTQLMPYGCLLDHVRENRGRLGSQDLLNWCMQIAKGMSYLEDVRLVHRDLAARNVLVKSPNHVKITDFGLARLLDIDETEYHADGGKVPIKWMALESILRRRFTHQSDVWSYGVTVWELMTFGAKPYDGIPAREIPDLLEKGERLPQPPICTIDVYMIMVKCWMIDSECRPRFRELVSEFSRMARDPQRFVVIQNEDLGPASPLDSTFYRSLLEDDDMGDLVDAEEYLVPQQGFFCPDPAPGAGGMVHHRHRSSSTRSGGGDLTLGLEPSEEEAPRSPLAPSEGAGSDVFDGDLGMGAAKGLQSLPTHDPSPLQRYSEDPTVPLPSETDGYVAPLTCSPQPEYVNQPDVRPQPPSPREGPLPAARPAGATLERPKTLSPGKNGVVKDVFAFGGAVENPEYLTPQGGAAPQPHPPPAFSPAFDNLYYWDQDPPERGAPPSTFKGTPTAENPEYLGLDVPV

| IC50 (ErbB2 V777L) [µM] | IC50 (EGFR WT) [µM] | SMILES |
| --- | --- | --- |
| 0.1 to 0.5 | < 0.05 | C=CC(=O)N1CCN(c2ccc3ncnc(Nc4ccc(Oc5cnc6c(c5)ncn6C(F)F)c(C)c4F)c3n2)C[C@H]1C [Compound 261, (R)-1-(4-(4-((4-((3-(difluoromethyl)-3H-imidazo[4,5-b]pyridin-6-yl)oxy)-2-fluoro-3-methylphenyl)amino)pyrido[3,2-d]pyrimidin-6-yl)-2-methylpiperazin-1-yl)prop-2-en-1-one] |
| 0.05 to 0.1 | < 0.05 | C=CC(=O)N1CCN(c2ccc3ncnc(Nc4ccc(Oc5cc(F)c6c(c5)nnn6C)c(C)c4F)c3n2)CC1 [Compound 91, 1-(4-(4-((2-fluoro-4-((7-fluoro-1-methyl-1H-benzo[d][1,2,3]triazol-5-yl)oxy)-3-methylphenyl)amino)pyrido[3,2-d]pyrimidin-6-yl)piperazin-1-yl)prop-2-en-1-one] |
| 0.05 to 0.1 | 0.1 to 0.5 | C=CC(=O)N[C@@H]1[C@@H]2CC[C@H]1CN(c1ncc3ncnc(Nc4ccc(Oc5ccc6c(c5)nnn6C)c(C)c4)c3n1)C2 [Compound 206, N-((1R,5S,8s)-3-(8-((3-methyl-4-((1-methyl-1H-benzo[d][1,2,3]triazol-5-yl)oxy)phenyl)amino)pyrimido[5,4-d]pyrimidin-2-yl)-3-azabicyclo[3.2.1]octan-8-yl)acrylamide] |
| 0.1 to 0.5 | 0.1 to 0.5 | C=CC(=O)NC1CCN(c2ncc3ncnc(Nc4ccc(Oc5ccc6c(c5)nnn6C)c(C)c4)c3n2)CC1 [Compound 123, N-(1-(8-((3-methyl-4-((1-methyl-1H-benzo[d][1,2,3]triazol-5-yl)oxy)phenyl)amino)pyrimido[5,4-d]pyrimidin-2-yl)piperidin-4-yl)acrylamide] |
| 0.05 to 0.1 | 0.1 to 0.5 | Cc1cc(Nc2ncnc3cnc(N4CCN(C(=O)/C=C/CF)CC4)nc23)ccc1Oc1ccc2c(c1)nnn2C [Compound 210, (E)-4-fluoro-1-(4-(8-((3-methyl-4-((1-methyl-1H-benzo[d][1,2,3]triazol-5-yl)oxy)phenyl)amino)pyrimido [5,4-d]pyrimidin-2-yl)piperazin-1-yl)but-2-en-1-one] |
| 0.1 to 0.5 | 0.05 to 0.1 | C=CC(=O)N1C[C@@H]2C[C@H]1CN(c1ncc3ncnc(Nc4ccc(Oc5cc(F)c6c(c5)ncn6C)c(C)c4F)c3n1)C2 [Compound 175, 1-((1R,5S)-3-(8-((2-fluoro-4-((7-fluoro-1-methyl-1H-benzo[d]imidazol-5-y1)oxy)-3-methylphenyl)amino)pyrimido[5,4-d]pyrimidin-2-yl)-3,6-diazabicyclo[3.2.1]octan-6-yl)prop-2-en-1-one] |
| 0.1 to 0.5 | 0.1 to 0.5 | C=CC(=O)N1CCN(c2ncc3ncnc(Nc4cc(C)c(Oc5ccc6c(c5)nnn6C)c(Cl)c4)c3n2)C[C@H]1C [Compound 151, (R)-1-(4-(8-((3-chloro-5-methyl-4-((1-methyl-1H-benzo[d][1,2,3]triazol-5-yl)oxy)phenyl)amino)pyrimido[5,4-d]pyrimidin-2-yl)-2-methylpiperazin-1-yl)prop-2-en-1-one] |
| 0.1 to 0.5 | 0.1 to 0.5 | C=CC(=O)N1C2CCCC1CC(c1ccc3ncnc(Nc4ccc(Oc5ccc6c(c5)nnn6C)c(C)c4F)c3n1)C2 (stereo not drawn) [Compound 402, 1-(3-(4-((2-fluoro-3-methyl-4-((1-methyl-1H-benzo[d][1,2,3]triazol-5-yl)oxy)phenyl)amino)pyrido[3,2-d]pyrimidin-6-yl)-9-azabicyclo[3.3.1]nonan-9-yl)prop-2-en-1-one trifluoroacetate] |
| 0.1 to 0.5 | 0.5 to 1 | C=CC(=O)N1CCN(c2nc3c(Nc4ccc(Oc5ccc6c(c5)nnn6C)c(C)c4)ncnc3cc2C)CC1 [Compound 374, 1-(4-(7-methyl-4-((3-methyl-4-((1-methyl-H-benzo[d][1,2,3]triazol-5-yl)oxy)phenyl)amino)pyrido[3,2-d]pyrimidin-6-yl)piperazin-1-yl)prop-2-en-1-one] |
| 0.05 to 0.1 | 0.1 to 0.5 | C=CC(=O)N[C@H]1CCCCN(c2ccc3ncnc(Nc4ccc(Oc5ccc6c(c5)nnn6C)c(C)c4F)c3n2)C1 [Compound 291, (S)-N-(1-(4-((2-fluoro-3-methyl-4-((1-methyl-1H-benzo[d][1,2,3]triazol-5-yl)oxy)phenyl)amino)pyrido[3,2-d]pyrimidin-6-yl)azepan-3-yl)acrylamide] |
| 0.1 to 0.5 | 0.1 to 0.5 | C=CC(=O)N1CCN(c2ncc3ncnc(Nc4ccc(Oc5ccc6c(c5)nnn6C)c(OC)c4F)c3n2)CC1 [Compound 45, 1-(4-(8-((2-fluoro-3-methoxy-4-((1-methyl-1H-benzo[d][1,2,3]triazol-5-yl)oxy)phenyl)amino)pyrimido [5,4-d]pyrimidin-2-yl)piperazin-1-yl)prop-2-en-1-one] |
| 0.5 to 1 | ≥ 1 | C=CC(=O)N1CCCN(c2ccc3ncnc(Nc4ccc(Oc5ccc6c(c5)nnn6C)c(C)c4)c3n2)C[C@H]1C [Compound 285, (R)-1-(2-methyl-4-(4-((3-methyl-4-((1-methyl-1H-benzo[d][1,2,3]triazol-5-yl)oxy)phenyl)amino)pyrido[3,2-d]pyrimidin-6-yl)-1,4-diazepan-1-yl)prop-2-en-1-one] |
| 0.1 to 0.5 | < 0.05 | C=CC(=O)N1CCN(c2ncc3ncnc(Nc4ccc(Oc5cnc6c(c5)ncn6C(F)F)c(C)c4F)c3n2)C[C@H]1C [Compound 177, (R)-1-(4-(8-((4-((3-(difluoromethyl)-3H-imidazo[4,5-b]pyridin-6-yl)oxy)-2-fluoro-3-methylphenyl)amino)pyrimido[5,4-d]pyrimidin-2-y1)-2-methylpiperazin-1-yl)prop-2-en-1-one] |
| 0.1 to 0.5 | ≥ 1 | C=CC(=O)N1CCCN(c2ncc3ncnc(Nc4ccc(Oc5ccc6c(c5)ncn6C)c(C)c4)c3n2)C[C@H]1C [Compound 143, (R)-1-(2-methyl-4-(8-((3-methyl-4-((1-methyl-1H-benzo[d]imidazol-5-yl)oxy)phenyl)amino)pyrimido[5,4-d]pyrimidin-2-yl)-1,4-diazepan-1-yl)prop-2-en-1-one] |
| 0.05 to 0.1 | 0.05 to 0.1 | C=CC(=O)N1CCC12CCN(c1ncc3ncnc(Nc4ccc(Oc5ccc6c(c5)nnn6C)c(C)c4)c3n1)C2 (stereo not drawn) [Compound 222, 1-(6-(8-((3-methyl-4-((1-methyl-1H-benzo[d][1,2,3]triazol-5-yl)oxy)phenyl)amino)pyrimido[5,4-d]pyrimidin-2-yl)-1,6-diazaspiro[3.4]octan-1-yl)prop-2-en-1-one] |
| 0.05 to 0.1 | 0.1 to 0.5 | C=CC(=O)N1C[C@@H]2CCN(c3ccc4ncnc(Nc5ccc(Oc6ccc7c(c6)nnn7C)c(C)c5)c4n3)[C@@H]2C1 (stereo in doubt) [Compound 314, 1-(1-(4-((3-methyl-4-((1-methyl-1H-benzo[d][1,2,3]triazol-5-yl)oxy)phenyl)amino)pyrido[3,2-d]pyrimidin-6-yl)hexahydropyrrolo[3,4-b]pyrrol-5(1H)-y1)prop-2-en-1-one] |
| 0.1 to 0.5 | 0.1 to 0.5 | C=CC(=O)N1CCC(c2ccc3ncnc(Nc4ccc(Oc5ccc6c(c5)nnn6C)c(C)c4)c3n2)CC1 [Compound 108, 1-(4-(4-((3-methyl-4-((1-methyl-1H-benzo[d][1,2,3]triazol-5-yl)oxy)phenyl)amino)pyrido[3,2-d]pyrimidin-6-yl)piperidin-1-yl)prop-2-en-1-one] |
| 0.05 to 0.1 | 0.1 to 0.5 | C=CC(=O)N[C@H]1CCCCN(c2ncc3ncnc(Nc4ccc(Oc5ccc6c(c5)nnn6C)c(C)c4F)c3n2)C1 [Compound 173, (S)-N-(1-(8-((2-fluoro-3-methyl-4-((1-methyl-1H-benzo[d][1,2,3]triazol-5-yl)oxy)phenyl)amino)pyrimido[5,4-d]pyrimidin-2-yl)azepan-3-yl)acrylamide] |
| 0.05 to 0.1 | 0.1 to 0.5 | C=CC(=O)N1CCN(c2ccc3ncnc(Nc4ccc(Oc5ccc6c(c5)nnn6C)c(C)c4)c3n2)C[C@H]1C(C)C [Compound 297, (R)-1-(2-isopropyl-4-(4-((3-methyl-4-((1-methyl-1H-benzo[d][1,2,3]triazol-5-yl)oxy)phenyl)amino)pyrido[3,2-d]pyrimidin-6-yl)piperazin-1-yl)prop-2-en-1-one] |
| 0.05 to 0.1 | 0.1 to 0.5 | C=CC(=O)N[C@@H]1CCCN(c2ccc3ncnc(Nc4ccc(Oc5ccc6c(c5)nnn6C)c(C)c4F)c3n2)[C@H]1C (single isomer, unassigned) [Compound 349] |
| 0.05 to 0.1 | < 0.05 | C=CC(=O)N1CC2CC1CN(c1ncc3ncnc(Nc4ccc(Oc5cc(F)c6c(c5)ncn6C)c(C)c4F)c3n1)C2 (stereo not drawn) [Compound 147, 1-(3-(8-((2-fluoro-4-((7-fluoro-1-methyl-1H-benzo[d]imidazol-5-yl)oxy)-3-methylphenyl)amino)pyrimido[5,4-d]pyrimidin-2-y1)-3,6-diazabicyclo[3.2.1]octan-6-yl)prop-2-en-1-one] |
| 0.1 to 0.5 | 0.5 to 1 | C=CC(=O)N1CCN(c2ncc3ncnc(Nc4ccc(Oc5ccc6c(c5)nnn6CC)c(C)c4)c3n2)CC1 [Compound 133, 1-(4-(8-((4-((1-ethyl-1H-benzo[d][1,2,3]triazol-5-yl)oxy)-3-methylphenyl)amino)pyrimido[5,4-d]pyrimidin-2-y1)piperazin-1-yl)prop-2-en-1-one] |
| 0.05 to 0.1 | 0.1 to 0.5 | C=CC(=O)N1CCN(c2ccc3ncnc(Nc4cc(C)c(Oc5ccc6c(c5)nnn6C)cc4F)c3n2)CC1 [Compound 94, 1-(4-(4-((2-fluoro-5-methyl-4-((1-methyl-1H-benzo[d][1,2,3]triazol-5-yl)oxy)phenyl)amino)pyrido[3,2-d]pyrimidin-6-yl)piperazin-1-yl)prop-2-en-1-one] |
| ≥ 1 | ≥ 1 | C=CC(=O)N[C@H]1[C@@H]2CC[C@H]1CN(c1ncc3ncnc(Nc4ccc(Oc5ccc6c(c5)nnn6C)c(C)c4)c3n1)C2 [Compound 205, N-((1R,5S,8r)-3-(8-((3-methyl-4-((1-methyl-1H-benzo[d][1,2,3]triazol-5-yl)oxy)phenyl)amino)pyrimido[5,4-d]pyrimidin-2-yl)-3-azabicyclo[3.2.1]octan-8-yl)acrylamide] |

From patent US20250129078A1, “ERBB2 INHIBITORS” (Cogent Biosciences, Inc., priority 2023, published 2025)
